Test results: US8242058B2, “Reagents and methods for appending functional groups to proteins” (Wisconsin Alumni Research Foundation, priority 2006, dated 2012)

Experiments:
[1] = Kinetics of thioester cleavage (release of thiophenolate, absorbance at 410 nm); conditions: pH 7.0, 25° C.
Procedure: To identify the optimal nitrogen nucleophile for a thioester, kinetic studies were performed on a model chromogenic thioester: AcGlySC6H4-p-NO2. The rate of release of the thiophenolate anion was monitored by measuring the change in absorbance at 410 nm (Scheme 1). Nitrogen nucleophiles with conjugate-acid pKa values ranging from 4.6 to 10.6 (Table 1) were used in the experiments. The logarithmic values of the second-order rate constants (k2) of the unprotonated primary amines were plotted against the pKa values of their conjugate acids to yield the Brønsted plot shown in FIG. 2A. The data were fitted to the equation^[26]: log k2=log(AB)+(β+β′)pKa−log(A10^βpK^a+B10^β′pK^a) (1) In eq 1, A and B are constants, β′ is the slope of the former part of the Brønsted plot, and β is the slope of the latter part.
Kinetics of thioester cleavage: AcGlySC6H4-p-NO2 was dissolved in anhydrous acetonitrile to a concentration of 0.45 mM and used immediately. Amine solutions (except CF3CH2NH2.HCl) were prepared by dissolving the amine hydrochloride salts in 0.10 M sodium phosphate buffer at pH 7.0 to a concentration of 0.15 M. Reaction mixtures were prepared in a 1,1-mL volume and equilibrated at 25° C. All reactions contained […] acetonitrile. The ionic strength of each reaction mixture was I=0.22-0.25. All reactions were carried out with a large excess of amine and followed pseudo-first-order kinetics. In a cuvette containing 0.10 M sodium phosphate buffer at pH 7.0 (967 μL), amine solution (0.15 M, 100 μL) was added and the absorbance at 410 nm was adjusted to zero. The thioester (33 μL of a 0.45 mM solution in acetonitrile) was then added to the cuvette, and the absorbance at 410 nm was monitored with time (ε=11,230 M^−1cm^−1 for p-nitrothiophenolate anion). […] This value is likely to be lower in an aqueous buffer, such that the ionization of the p-nitrothiophenol product is virtually complete in all our assays. The final concentration of the thioester in the reaction was 13.64 μM and the final concentration of the amines (except CF3CH2NH2.HCl) was 13.64 mM. Each reaction was performed in triplicate. The reactions were allowed to go to completion, and the t1/2 was determined from the kinetic trace. The t1/2 was corrected by subtracting the t1/2 for hydrolysis from the observed value. Pseudo-first-order rate constants were calculated by using the equation k1=0.693/t1/2. Second-order rate constants were obtained by dividing each observed first-order rate constant by the concentration of free amine. Logarithmic values of second-order rate constants were plotted against the pKa values of the conjugate acids of the respective amines to yield a Brønsted plot.
Using a higher buffer concentration was not ideal, as that would increase the ionic strength to a much value much larger than that in other reaction mixtures. To overcome these problems, the reaction with CF3CH2NH2 was carried out using 40.92 mM CF3CH2NH2.HCl and allowing the pH of the reaction mixture to decrease to 5.8. The observed t12 was corrected by subtracting the t12 for hydrolysis at pH 5.8. The second-order rate constant was calculated by accounting for the concentration of free amine at pH 5.8, and the resulting value was used in the Brønsted plot. The first-order rate constant thus obtained was not compared to those for the other nucleophiles.

[2] = molecular target: T1, Met(−1)RNase A-Gly-mxe intein thioester (UniProt P20533+P61823); assay: On-resin cleavage of the intein fusion protein thioester; conditions: on chitin resin
T1 construct: made in house; host or cells: E. coli BL21 (DE3), plasmid pJK01
T1 sequence (P61823+P20533 with tags, fused parts or gaps): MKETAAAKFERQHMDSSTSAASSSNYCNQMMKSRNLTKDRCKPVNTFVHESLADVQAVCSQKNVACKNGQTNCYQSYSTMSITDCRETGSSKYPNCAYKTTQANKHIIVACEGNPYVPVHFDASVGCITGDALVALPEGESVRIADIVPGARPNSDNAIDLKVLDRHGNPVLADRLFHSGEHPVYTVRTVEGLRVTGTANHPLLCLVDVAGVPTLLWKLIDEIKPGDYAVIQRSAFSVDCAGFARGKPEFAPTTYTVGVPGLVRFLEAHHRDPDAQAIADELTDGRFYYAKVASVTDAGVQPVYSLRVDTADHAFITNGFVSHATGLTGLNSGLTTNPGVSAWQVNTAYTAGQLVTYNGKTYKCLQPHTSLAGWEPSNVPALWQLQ
Source text: Next, we sought to use our bifunctional reagents to install an azido group at the C terminus of a model protein. As our protein, we chose bovine pancreatic ribonuclease (RNase A), which has been the object of much seminal work in protein chemistry and has been manipulated previously with expressed protein ligation. RNase A has valine as its C-terminal residue. A valine residue at the C terminus of a target protein is known to have a debilitating effect on the cleavage efficiency of protein-intein thioesters. To avert this problem, we inserted a glycine residue between the C terminus of RNase A and the intein. The resulting Met(−1)RNase A-Gly-mxe intein-chitin-binding domain fusion protein (MW ˜36 kDa) was produced in E. coli, and the cell lysate was loaded onto chitin resin. Azides 1 and 2 were used to induce the on-resin cleavage of the fusion protein. […] The purity of the azido-RNase A (even upon elution from the chitin column) was apparent from SDS-PAGE analysis (FIG. 3A); the integrity of the azido-RNase A was verified by using MALDI-TOF mass spectrometry (FIG. 3B). This procedure produced an overall yield of ˜1 mg of purified azido-RNase A per liter of E. coli culture. […]

SMILES: [N-]=[N+]=NCCNC(=O)CNN [azide 1, H2NNHCH2CONHCH2CH2N3]
- rate constants (k2 and k1) for thioester cleavage [1]: indistinguishable from those of the α-hydrazino acetyl group
- efficiency of cleaving the protein-intein thioester [2]: much more effective than azide 2
